Measured values taken from patent publication US9980943B2, “Methods of treating muscular dystrophy” (BOARD OF REGENTS OF THE NEVADA SYSTEM OF HIGHER EDUCATION, …, priority 2013, dated 2018).

Tests used:
Format in all cases: cell-based, mouse
[1] = tested on: α7 integrin (LacZ reporter in α7βgal+/− myoblasts); assay: Myoblast α7+/LacZ integrin FDG assay (Burkin assay in myoblasts, 96-well); conditions: α7+/LacZ myoblasts, 96-well
[2] = tested on: α7 integrin (LacZ reporter in α7+/LacZ myotubes); assay: Myotube α7 integrin FDG assay (Burkin assay in myotubes, 96-well); conditions: myotubes
[3] = tested on: β-galactosidase in CMV-LacZ C2C12 myoblasts; assay: CMV-LacZ secondary screen in C2C12 myoblasts (β-Gal stabilizing assay); conditions: CMV-LacZ C2C12 myoblasts
Method in brief: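 Dose-response runs at 0.5–40 μM (0.5, 1, 5, 10, 20, 40 μM; N=2 per point) used a clonal C2C12 line carrying CMV-LacZ. Cells were assayed as myoblasts or as differentiated myotubes, and β-galactosidase levels were read with the FDG fluorogenic substrate.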

[4] = tested on: β-galactosidase in CMV-LacZ C2C12 myotubes; assay: CMV-LacZ secondary screen in C2C12 myotubes (β-Gal stabilizing assay); conditions: C2C12 CMV-LacZ myotubes, fold relative to DMSO
Method in brief: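 Stable CMV-LacZ C2C12 clone; six-point curve 0.5–40 μM; duplicates.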

| Compound | Burkin Assay in Myoblasts, signal relative to DMSO ([1]; 0.5 uM) | Burkin Assay in Myoblasts, signal relative to DMSO ([1]; 1 uM) | Burkin Assay in Myoblasts, signal relative to DMSO ([1]; 5 uM) | Burkin Assay in Myoblasts, signal relative to DMSO ([1]; 10 uM) | Burkin Assay in Myoblasts, signal relative to DMSO ([1]; 20 uM) | Burkin Assay in Myoblasts, signal relative to DMSO ([1]; 40 uM) | Burkin Assay in Myotubes, α7 integrin LacZ reporter signal relative to DMSO ([2]; 0.5 uM) | Burkin Assay in Myotubes, α7 integrin LacZ reporter signal relative to DMSO ([2]; 1 uM) | Burkin Assay in Myotubes, α7 integrin LacZ reporter signal relative to DMSO ([2]; 5 uM) | Burkin Assay in Myotubes, α7 integrin LacZ reporter signal relative to DMSO ([2]; 10 uM) | Burkin Assay in Myotubes, α7 integrin LacZ reporter signal relative to DMSO ([2]; 20 uM) | Burkin Assay in Myotubes, α7 integrin LacZ reporter signal relative to DMSO ([2]; 40 uM) | CMV-LACZ in Myoblasts (β-galactosidase activity relative to DMSO) ([3]; 0.5 uM) | CMV-LACZ in Myoblasts (β-galactosidase activity relative to DMSO) ([3]; 1 uM) | CMV-LACZ in Myoblasts (β-galactosidase activity relative to DMSO) ([3]; 5 uM) | CMV-LACZ in Myoblasts (β-galactosidase activity relative to DMSO) ([3]; 10 uM) | CMV-LACZ in Myoblasts (β-galactosidase activity relative to DMSO) ([3]; 20 uM) | CMV-LACZ in Myoblasts (β-galactosidase activity relative to DMSO) ([3]; 40 uM) | CMV-LACZ in Myotubes, signal relative to DMSO ([4]; 0.5 uM) | CMV-LACZ in Myotubes, signal relative to DMSO ([4]; 1 uM) | also measured |
| --- | --- | --- | --- | --- | --- | --- | --- | --- | --- | --- | --- | --- | --- | --- | --- | --- | --- | --- | --- | --- | --- |
| CCOn1c(=O)c(-c2ccccc2)[n+]([O-])c2ccccc21 [MLS001197220-01] | 1.2811 | 1.286 | 1.843 | 0.9218 | 1.111 | 1.0836 | 1.327 | 1.3061 | 1.254 | 1.004 | 0.9 | 0.831 | 1.2028 | 1.1569 | 0.9355 | 1.1383 | 0.9567 | 1.2844 | 0.8896 | 0.9356 | CMV-LACZ in Myotubes, signal relative to DMSO ([4]; 5 uM): 0.9682; CMV-LACZ in Myotubes, signal relative to DMSO ([4]; 10 uM): 0.9289; CMV-LACZ in Myotubes, signal relative to DMSO ([4]; 20 uM): 0.9659; CMV-LACZ in Myotubes, signal relative to DMSO ([4]; 40 uM): 1.0271 |
| Cc1ccccc1NC(=O)NCCCN1CCN(C)CC1 [MLS001197665-01] | 1.062 | 1.069 | 1.015 | 0.9523 | 1.094 | 1.189 | 1.115 | 1.068 | 0.973 | 0.999 | 1.001 | 0.9583 | 0.8584 | 0.8347 | 0.9214 | 0.8403 | 0.9556 | 1.0267 | 0.9415 | 0.8756 | CMV-LACZ in Myotubes, signal relative to DMSO ([4]; 5 uM): 0.9771; CMV-LACZ in Myotubes, signal relative to DMSO ([4]; 10 uM): 1.2593; CMV-LACZ in Myotubes, signal relative to DMSO ([4]; 20 uM): 1.0047; CMV-LACZ in Myotubes, signal relative to DMSO ([4]; 40 uM): 1.0741 |
| CC(=O)C1=C(C)Nc2ncnn2C1c1ccc(C)cc1 (stereo not drawn) [MLS001197779-01] | 0.9161 | 1.0032 | 1.281 | 0.9869 | 0.8467 | 0.753 | 1.038 | 0.961 | 1.102 | 0.9249 | 0.8237 | 0.913 | 0.8987 | 1.2563 | 0.7604 | 0.6490 | 0.9846 | 1.1267 | 1.1286 | 1.1705 | CMV-LACZ in Myotubes, signal relative to DMSO ([4]; 5 uM): 1.0456; CMV-LACZ in Myotubes, signal relative to DMSO ([4]; 10 uM): 1.0983; CMV-LACZ in Myotubes, signal relative to DMSO ([4]; 20 uM): 1.0630; CMV-LACZ in Myotubes, signal relative to DMSO ([4]; 40 uM): 1.0540 |
